Values joined by “and” are separate entries in the source; they are usually repeats but may differ in a detail not shown here. Equal values may be shown once.
Tested on: Human immunodeficiency virus 1
Experiment: Antiviral activity against wild type HIV-1 infected in human MT4 cells assessed as inhibition of viral infection by MTT assay
Type: functional, organism-based
Details: Human immunodeficiency virus 1, MT4

Row | SMILES | EC50
1 | Cc1ccc(-c2c(C)c3c(c(C)c2[C@H](OC(C)(C)C)C(=O)O)N(S(C)(=O)=O)Cc2ccncc2-3)cc1 | 20 nM
2 | Cc1ccc(-c2c(C)c3c(c(C)c2[C@H](OC(C)(C)C)C(=O)O)N(C)Cc2ccccc2-3)cc1 | 120 nM
3 | Cc1ccc(-c2c(C)c3c(c(C)c2[C@H](OC(C)(C)C)C(=O)O)N(S(C)(=O)=O)Cc2cc(C)ccc2-3)cc1 | 4.9 nM
4 | CC(=O)N1Cc2ccccc2-c2c(C)c(-c3ccc(C)cc3)c([C@H](OC(C)(C)C)C(=O)O)c(C)c21 | 30 nM
5 | Cc1ccc(-c2c(C)c3c(c(C)c2[C@H](OC(C)(C)C)C(=O)O)N(S(C)(=O)=O)Cc2cc(Cl)ccc2-3)cc1 | 3.9 nM
6 | COc1ccc2c(c1)CN(S(C)(=O)=O)c1c(C)c([C@H](OC(C)(C)C)C(=O)O)c(-c3ccc(C)cc3)c(C)c1-2 | 2.9 nM
7 | Cc1ccc(-c2c(C)c3c(c(C)c2[C@H](OC(C)(C)C)C(=O)O)N(S(C)(=O)=O)Cc2c(C)cccc2-3)cc1 | 8 nM
8 | Cc1c(-c2ccc(F)cc2)c([C@H](OC(C)(C)C)C(=O)O)c(C)c2c1-c1c(F)cccc1CN2S(C)(=O)=O | 12 nM
9 | Cc1c(-c2ccc3c(c2)NCCO3)c([C@H](OC(C)(C)C)C(=O)O)c(C)c2c1-c1c(F)cccc1CN2S(C)(=O)=O | 10 nM
10 | Cc1ccc(-c2c(C)c3c(c(C)c2[C@H](OC(C)(C)C)C(=O)O)N(S(C)(=O)=O)Cc2cc(C(F)(F)F)ccc2-3)cc1 | 3 nM
11 | Cc1ccc(-c2c(C)c3c(c(C)c2[C@H](OC(C)(C)C)C(=O)O)N(S(C)(=O)=O)Cc2cccc(C)c2-3)cc1 | 20 nM
12 | Cc1c(-c2ccc3c(c2)NCCC3)c([C@H](OC(C)(C)C)C(=O)O)c(C)c2c1-c1c(F)cccc1CN2S(C)(=O)=O | 4.3 nM
13 | Cc1ccc(-c2c(C)c3c(c(C)c2[C@H](OC(C)(C)C)C(=O)O)N(S(C)(=O)=O)Cc2cc(F)ccc2-3)cc1 | 5.7 nM
14 | Cc1nc2ccccc2c(-c2ccc3c4c(ccnc24)CCO3)c1[C@H](OC(C)(C)C)C(=O)O [BI-224436] | 20 nM

Same assay, conditions: mt4

Row | SMILES | EC50
15 | Cc1ccc(-c2c(C)c3c(c(C)c2[C@H](OC(C)(C)C)C(=O)O)N(S(C)(=O)=O)Cc2cccc(F)c2-3)c(C)c1 | 3.7 nM and 9.5 nM
16 | Cc1c(-c2c(C)c3c(c(C)c2[C@H](OC(C)(C)C)C(=O)O)N(S(C)(=O)=O)Cc2cccc(F)c2-3)ccc2c1CCCO2 | 1.9 nM and 6.7 nM
17 | Cc1ccc(-c2c(C)c3c(c(C)c2[C@H](OC(C)(C)C)C(=O)O)N(S(C)(=O)=O)Cc2cccc(F)c2-3)c(O)c1 | 4.6 nM and 21 nM

Tested on: MT4
Experiment: Cytotoxicity against human MT4 cells assessed as reduction in cell viability by MTT assay
Type: functional
Details: not given

Row | SMILES | CC50
18 | Cc1ccc(-c2c(C)c3c(c(C)c2[C@H](OC(C)(C)C)C(=O)O)N(S(C)(=O)=O)Cc2cccc(F)c2-3)c(C)c1 | 11000 nM
19 | Cc1c(-c2c(C)c3c(c(C)c2[C@H](OC(C)(C)C)C(=O)O)N(S(C)(=O)=O)Cc2cccc(F)c2-3)ccc2c1CCCO2 | 22000 nM
20 | Cc1ccc(-c2c(C)c3c(c(C)c2[C@H](OC(C)(C)C)C(=O)O)N(S(C)(=O)=O)Cc2cccc(F)c2-3)c(O)c1 | 59000 nM and 14000 nM

Same assay, conditions: Homo sapiens, MT4

Row | SMILES | CC50
21 | Cc1ccc(-c2c(C)c3c(c(C)c2[C@H](OC(C)(C)C)C(=O)O)N(S(C)(=O)=O)Cc2cccc(F)c2-3)c(C)c1 | 18000 nM
22 | Cc1c(-c2c(C)c3c(c(C)c2[C@H](OC(C)(C)C)C(=O)O)N(S(C)(=O)=O)Cc2cccc(F)c2-3)ccc2c1CCCO2 | 17000 nM
23 | Cc1ccc(-c2c(C)c3c(c(C)c2[C@H](OC(C)(C)C)C(=O)O)N(S(C)(=O)=O)Cc2ccncc2-3)cc1 | 25000 nM
24 | Cc1ccc(-c2c(C)c3c(c(C)c2[C@H](OC(C)(C)C)C(=O)O)N(C)Cc2ccccc2-3)cc1 | 8400 nM
25 | Cc1ccc(-c2c(C)c3c(c(C)c2[C@H](OC(C)(C)C)C(=O)O)N(S(C)(=O)=O)Cc2cc(C)ccc2-3)cc1 | 14000 nM
26 | CC(=O)N1Cc2ccccc2-c2c(C)c(-c3ccc(C)cc3)c([C@H](OC(C)(C)C)C(=O)O)c(C)c21 | 27000 nM
27 | Cc1ccc(-c2c(C)c3c(c(C)c2[C@H](OC(C)(C)C)C(=O)O)N(S(C)(=O)=O)Cc2cc(Cl)ccc2-3)cc1 | 13000 nM
28 | COc1ccc2c(c1)CN(S(C)(=O)=O)c1c(C)c([C@H](OC(C)(C)C)C(=O)O)c(-c3ccc(C)cc3)c(C)c1-2 | 17000 nM
29 | Cc1ccc(-c2c(C)c3c(c(C)c2[C@H](OC(C)(C)C)C(=O)O)N(S(C)(=O)=O)Cc2c(C)cccc2-3)cc1 | 17000 nM
30 | Cc1c(-c2ccc(F)cc2)c([C@H](OC(C)(C)C)C(=O)O)c(C)c2c1-c1c(F)cccc1CN2S(C)(=O)=O | 32000 nM
31 | Cc1c(-c2ccc3c(c2)NCCO3)c([C@H](OC(C)(C)C)C(=O)O)c(C)c2c1-c1c(F)cccc1CN2S(C)(=O)=O | 55000 nM
32 | Cc1ccc(-c2c(C)c3c(c(C)c2[C@H](OC(C)(C)C)C(=O)O)N(S(C)(=O)=O)Cc2cc(C(F)(F)F)ccc2-3)cc1 | 10000 nM
33 | Cc1ccc(-c2c(C)c3c(c(C)c2[C@H](OC(C)(C)C)C(=O)O)N(S(C)(=O)=O)Cc2cccc(C)c2-3)cc1 | 17000 nM
34 | Cc1c(-c2ccc3c(c2)NCCC3)c([C@H](OC(C)(C)C)C(=O)O)c(C)c2c1-c1c(F)cccc1CN2S(C)(=O)=O | 30000 nM
35 | Cc1ccc(-c2c(C)c3c(c(C)c2[C@H](OC(C)(C)C)C(=O)O)N(S(C)(=O)=O)Cc2cc(F)ccc2-3)cc1 | 19000 nM
36 | Cc1nc2ccccc2c(-c2ccc3c4c(ccnc24)CCO3)c1[C@H](OC(C)(C)C)C(=O)O [BI-224436] | > 50000 nM

Tested on: Human immunodeficiency virus 1
Experiment: Antiviral activity against […] HIV-1 harboring T174I mutant infected in human MT4 cells assessed as inhibition of viral infection by MTT assay
Type: functional, organism-based
Details: Human immunodeficiency virus 1, MT4

Row | SMILES | EC50
37 | Cc1ccc(-c2c(C)c3c(c(C)c2[C@H](OC(C)(C)C)C(=O)O)N(S(C)(=O)=O)Cc2cccc(F)c2-3)c(C)c1 | 1100 nM
38 | Cc1ccc(-c2c(C)c3c(c(C)c2[C@H](OC(C)(C)C)C(=O)O)N(S(C)(=O)=O)Cc2ccncc2-3)cc1 | > 5000 nM
39 | Cc1ccc(-c2c(C)c3c(c(C)c2[C@H](OC(C)(C)C)C(=O)O)N(S(C)(=O)=O)Cc2cc(C)ccc2-3)cc1 | 440 nM
40 | Cc1ccc(-c2c(C)c3c(c(C)c2[C@H](OC(C)(C)C)C(=O)O)N(S(C)(=O)=O)Cc2cc(Cl)ccc2-3)cc1 | 330 nM
41 | COc1ccc2c(c1)CN(S(C)(=O)=O)c1c(C)c([C@H](OC(C)(C)C)C(=O)O)c(-c3ccc(C)cc3)c(C)c1-2 | 270 nM
42 | Cc1ccc(-c2c(C)c3c(c(C)c2[C@H](OC(C)(C)C)C(=O)O)N(S(C)(=O)=O)Cc2c(C)cccc2-3)cc1 | 670 nM
43 | Cc1c(-c2ccc(F)cc2)c([C@H](OC(C)(C)C)C(=O)O)c(C)c2c1-c1c(F)cccc1CN2S(C)(=O)=O | 860 nM
44 | Cc1c(-c2ccc3c(c2)NCCO3)c([C@H](OC(C)(C)C)C(=O)O)c(C)c2c1-c1c(F)cccc1CN2S(C)(=O)=O | 150 nM
45 | Cc1ccc(-c2c(C)c3c(c(C)c2[C@H](OC(C)(C)C)C(=O)O)N(S(C)(=O)=O)Cc2cc(C(F)(F)F)ccc2-3)cc1 | 460 nM
46 | Cc1ccc(-c2c(C)c3c(c(C)c2[C@H](OC(C)(C)C)C(=O)O)N(S(C)(=O)=O)Cc2cccc(C)c2-3)cc1 | 600 nM
47 | Cc1c(-c2ccc3c(c2)NCCC3)c([C@H](OC(C)(C)C)C(=O)O)c(C)c2c1-c1c(F)cccc1CN2S(C)(=O)=O | 99 nM
48 | Cc1ccc(-c2c(C)c3c(c(C)c2[C@H](OC(C)(C)C)C(=O)O)N(S(C)(=O)=O)Cc2cc(F)ccc2-3)cc1 | 360 nM
49 | Cc1nc2ccccc2c(-c2ccc3c4c(ccnc24)CCO3)c1[C@H](OC(C)(C)C)C(=O)O [BI-224436] | > 5000 nM

Same assay, conditions: mt4

Row | SMILES | EC50
50 | Cc1ccc(-c2c(C)c3c(c(C)c2[C@H](OC(C)(C)C)C(=O)O)N(S(C)(=O)=O)Cc2cccc(F)c2-3)c(C)c1 | 1500 nM
51 | Cc1c(-c2c(C)c3c(c(C)c2[C@H](OC(C)(C)C)C(=O)O)N(S(C)(=O)=O)Cc2cccc(F)c2-3)ccc2c1CCCO2 | 48 nM and 420 nM

Tested on: not listed separately
Experiment: Metabolic stability in human liver microsomes
Type: ADME, Microsome
Details: not given

Row | SMILES | Stability
52 | Cc1ccc(-c2c(C)c3c(c(C)c2[C@H](OC(C)(C)C)C(=O)O)N(S(C)(=O)=O)Cc2cccc(F)c2-3)c(O)c1 | 76.3%

Tested on: not listed separately
Experiment: Metabolic stability in rat liver microsomes
Type: ADME, Microsome
Details: not given

Row | SMILES | Stability
53 | Cc1ccc(-c2c(C)c3c(c(C)c2[C@H](OC(C)(C)C)C(=O)O)N(S(C)(=O)=O)Cc2cccc(F)c2-3)c(O)c1 | 60.7%

Tested on: not listed separately
Experiment: AUC in rat at 0.5 mg/kg, iv
Type: ADME, organism-based
Design: dose 0.5 mg/kg, route iv
Details: in vivo

Row | SMILES | AUC
54 | Cc1ccc(-c2c(C)c3c(c(C)c2[C@H](OC(C)(C)C)C(=O)O)N(S(C)(=O)=O)Cc2cccc(F)c2-3)c(O)c1 | 21.2 ng·h/mL

Tested on: not listed separately
Experiment: Elimination half life in rat at 0.5 mg/kg, iv
Type: ADME, organism-based
Details: in vivo, read-out: beta t1/2 (converted)

Row | SMILES | half-life
55 | Cc1ccc(-c2c(C)c3c(c(C)c2[C@H](OC(C)(C)C)C(=O)O)N(S(C)(=O)=O)Cc2cccc(F)c2-3)c(O)c1 | 3.5 h

Tested on: not listed separately
Experiment: Oral bioavailability in rat at 1 mg/kg
Type: ADME, organism-based
Details: in vivo

Row | SMILES | bioavailability
56 | Cc1ccc(-c2c(C)c3c(c(C)c2[C@H](OC(C)(C)C)C(=O)O)N(S(C)(=O)=O)Cc2cccc(F)c2-3)c(O)c1 | 17.8%
